Data on 6 molecules can be found in US7897569B2, “Use of HMGB fragments as anti-inflammatory agents” (The Feinstein Institute for Medical Research, priority 2001, dated 2011).

Ends that are not written are not given here.

This test relates to RAW 264.7 cells. Nature of the test: TNF release from RAW 264.7 cells (L929 cytotoxicity bioassay). It counts as cell-based, murine. As to conditions: for TNF release by synthetic peptide fragment of B box: no polymyxin B. The method, then: Murine macrophage-like RAW 264.7 cells (American Type Culture Collection, Rockville, Md.) were cultured in RPMI 1640 medium (Life Technologies, Grand Island N.Y.) supplemented with 10% fetal bovine serum (Gemini, Catabasas, Calif.), penicillin and streptomycin (Life Technologies) and were used at 90% confluence in serum-free Opti-MEM I medium (Life Technologies, Grand Island, N.Y.). […] Polymyxin B was not used in experiments of synthetic peptide studies.
TNF release was measured by a standard murine fibroblast L929 (ATCC, American Type Culture Collection, Rockville, Md.) cytotoxicity bioassay (Bianchi et al., Journal of Experimental Medicine 183:927-936, 1996) with the minimum detectable concentration of 30 pg/ml. Recombinant mouse TNF was obtained from R&D system Inc., (Minneapolis, Minn.). Murine fibroblast L929 cells (ATCC) were cultured in DMEM (Life Technologies, Grand Island, N.Y.) supplemented with 10% fetal bovine serum (Gemini, Catabasas, Calif.), penicillin (50 units/ml) and streptomycin (50 μg/ml) (Life Technologies) in a humidified incubator with 5% CO2.
The effect of the mutants on TNF release from Murine macrophage-like RAW 264.7 cells (ATCC) was carried out as follows. RAW 264.7 cells were cultured in RPMI 1640 medium (Life Technologies, Grand Island N.Y.) supplemented with 10% fetal bovine serum (Gemini, Catabasas, Calif.), penicillin and streptomycin (Life Technologies). Polymyxin (Sigma, St. Louis, Mo.) was added at 100 units/ml to suppress the activity of any contaminating LPS. Cells were incubated with 1 μg/ml of full length (wild-type) HMGB1 and each HMGB1 mutant protein in Opti-MEM I medium for 8 hours, and conditioned supernatants (containing TNF which had been released from the cells) were collected and TNF released from the cells was measured by a standard murine fibroblast L929 (ATCC) cytotoxicity bioassay (Bianchi et al., supra) with the minimum detectable concentration of 30 pg/ml. Recombinant mouse TNF was obtained from R & D Systems Inc., (Minneapolis, Minn.) and used as control in these experiments. Data in FIG. 1 are all presented as mean+SEM unless otherwise indicated. (N=6-10).
To further examine the effect of HMGB1 B box on cytokine production, varying amounts of HMGB1 B box were evaluated for the effects on TNF, IL-1 B, and IL-6 production in murine macrophage-like RAW 264.7 cells. Conditioned media were harvested and measured for TNF, IL-1β and IL-6 levels. TNF levels were measured as described herein, and IL-1β and IL-6 levels were measured using the mouse IL-1β and IL-6 enzyme-linked immunosorbent assay (ELISA) kits (R&D System Inc., Minneapolis, Minn.) and N>5 for all experiments.
The kinetics of B box-induced TNF release was also examined. TNF release and TNF mRNA expression was measured in RAW 264.7 cells induced by B box polypeptide or GST tag polypeptide only used as a control (vector) (10 μg/ml) for 0 to 48 hours. Supernatants were analyzed for TNF protein levels by an L929 cytotoxicity assay (N=3-5) as described herein. For mRNA measurement, cells were plated in 100 mm plate and treated in Opti-MEM I medium containing B box polypeptide or the vector alone for 0, 4, 8, or 24 hours, as indicated in FIG. 2D. The vector only sample was assayed at the 4 hour time point. Cells were scraped off the plate and total RNA was isolated by RNAzol B method in accordance with the manufacturer's instructions (Tel-Test “B”, Inc., Friendswood, Tex.). TNF (287 bp) was measured by RNase protection assay (Ambion, Austin, Tex.). Equal loading and the integrity of RNA was verified by ethidium bromide staining of the RNA sample on agarose-formaldehyde gel. […] TNF mRNA expression was maximal at 4 hours and decreased at 8 and 24 hours. […] A similar study was carried out measuring TNF protein released from RAW 264.7 cells 0, 4, 8, 24, 32 or 48 hours after administration of B box or vector only (GST tag), using the L929 cytotoxicity assay described herein. […] Data are representative of three separate experiments. […]

“16-25: Synthetic peptide fragment, amino acids 16-25 of the HMGB1 B box (SEQ ID NO:20) (LFCSEYRPKI)”: the “TNF release by synthetic peptide fragment of B box” value (“TNF release … of B box” below) (peptide 10 μg/ml, 10 hours) is “did not induce TNF release”.
For the molecule “30-49: Synthetic peptide fragment, amino acids 30-49 of the HMGB1 B box (SEQ ID NO:20) (PGLSIGDVAKKLGEMWNNTA)”, the “TNF release … of B box” value (peptide 10 μg/ml, 10 hours) was “did not induce TNF release”.
As to “45-64: Synthetic peptide fragment, amino acids 45-64 of the HMGB1 B box (SEQ ID NO:20) (WNNTAADDKQPYEKKAAKLK)”, the “TNF release … of B box” value (peptide 10 μg/ml, 10 hours) was “did not induce TNF release”.
Turning to “60-74: Synthetic peptide fragment, amino acids 60-74 of the HMGB1 B box (SEQ ID NO:20) (AAKLKEKYEKDIAAY)”, the “TNF release … of B box” value (peptide 10 μg/ml, 10 hours) is on record as “did not induce TNF release”.
As for “fkdpnapkrlpsafflfcse (FKDPNAPKRLPSAFFLFCSE; not fully specified; printed as fkdpnapkrlpsafflfcse) [1-20-mer]”, where the note is “peptide 10 μg/ml, 10 hours”, the “TNF stimulating activity relative to full length B box and HMGB1” value is listed as “less potent than either the full length synthetic B box (1-74-mer), or full length HMGB1”; the “TNF release … of B box” value was “TNF-stimulating activity was retained”.

B1: carboxyl-truncated HMGB1: Human HMGB1 mutant in which the carboxy terminus was deleted, SEQ ID NO:19 (protein)
chain: MGKGDPKKPTGKMSSYAFFVQTCREEHKKKHPDASVNFSEFSKKCSERWKTMSAKEKGKFEDMAKADKARYEREMKTYIPPKGETKKKFKDPNAPKRLPSAFFLFCSEYRPKIKGEHPGLSIGDVAKKLGEMWNNTAADDKQPYEKKAAKLKEKYEKDIAAYRAKGKPDAAKKGVVKAEKSK
For the molecule B1, the TNF release entry (1 μg/ml protein, 8 hours, RAW 264.7 cells) is “significantly stimulated TNF release”.
